Four compounds from US20230143604A1, “QW DOSING OF GIP RECEPTOR AGONIST PEPTIDE COMPOUNDS AND USES THEREOF” (TAKEDA PHARMACEUTICAL COMPANY LIMITED, priority 2020, published 2023) can be followed below.

Like-named read-outs stand apart in the source and are kept apart here. Starred links: 1 amine or outer side, 2 acyl side, 3 side chain; linkers in the order of their positions; H or OH if unused. Non-standard residues stand in square brackets, D forms with d. Residues, ends and D or L forms follow the SMILES beside them. Groups on a side chain read outwards from the residue. *: point of attachment. C18 diacid = O=C(O)CCCCCCCCCCCCCCCCC(=O)*; C17 diacid = O=C(O)CCCCCCCCCCCCCCCC(=O)*; γGlu = O=C(O)[C@H](CCC(=O)[*:2])N[*:1]; NMeY = CN[C@@H](Cc1ccc(O)cc1)C(=O)O; AEEA = NCCOCCOCC(=O)O; Aib = CC(C)(N)C(=O)O

Series [1] in a line: Human plasma protein binding (PPB). Particulars: for fraction unbound at 30 min, 1000 nmol/L: both sexes, pH 7.4. The format is in vitro ADME. The method in brief:
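Peptides spiked at 1000 nmol/L into pooled human K2-EDTA plasma adjusted to pH 7.4, incubated 30 min at 37 °C, then ultracentrifuged at ~450,000 g, 4 °C for 3 h. Fu derived from LC-MS/MS (MRM) peak area ratios, supernatant versus plasma.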

A short description of series [2]: Pharmacokinetics in dog after IV and SC dosing. Particulars: in vivo. How it is done:
Pharmacokinetic (PK) were conducted in dog in order to determine the half-life after IV and SC dosing. The peptide was dissolved in 10% DMSO/0.09% Polysorbate/PBS pH 7.4 to a concentration of 3 nmol/mL and the animal were dose with a volume of 1 mL/kg SC or IV. Blood sample were collected at 0, 0.033, 0.083, 0.25, 0.5, 1, 2, 4, 6, 8, 12, 24, 48, 72, 96, 120, 168, 336 hours for IV dosing and 0.25, 0.5, 1, 2, 4, 6, 8, 12, 24, 48, 72, 96, 120, 168, 336 for SC dosing, EDTA-K2 was used as anticoagulant. The plasma concentration of the peptide was measured using LCMS. Allometric scaling of lipidated peptide pharmacokinetics including T1/2 and MRT is known in the art for rodent to dog and mini pig and to humans. […] See for example, Discovery and Development of Liraglutide and Semaglutide. Knudsen, L. B.; Lau, J. Frontiers in Endocrinology, 2019, vol 10, Article 155.

The nature of series [3]: physchem. The procedure, abridged: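 Solubility at pH 7.4 determined by stepwise addition of 200 mM phosphate buffer in 100 μL increments to 3 mg peptide, mixing briefly each time, until no insoluble material remained, then measured by liquid chromatography.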
The nature of series [4]: Dog plasma protein binding (PPB). It is filed as in vitro ADME. The method in brief: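 Fraction unbound (Fu,plasma) is given as a percentage. It was measured with the method and analysis of the human protein-binding protocol, but using dog serum in place of human serum.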
Where [5] appears, read: judged for once per week (QW) dosing.
[6] abbreviates: IV 3 nmol/kg, read-out: IV T½ (converted).
[7] abbreviates: SC 3 nmol/kg, read-out: SC MRT 0-last.
The mark [8] stands for this setting: pH 7.4, fraction unbound, dog serum, read-out: Dog PPB (FUplasma).

The MRT last is the average time that molecules of a dose stay in the body. One may read the solubility as how much of the substance goes into solution per volume. In the case of `CC[C@H](C)[C@H](NC(=O)[C@H](CO)NC(=O)[C@H](Cc1ccc(O)cc1)NC(=O)[C@H](CC(=O)O)NC(=O)[C@H](CO)NC(=O)[C@@H](NC(=O)[C@H](Cc1ccccc1)NC(=O)[C@@H](NC(=O)CNC(=O)[C@H](CCC(=O)O)NC(=O)C(C)(C)NC(=O)[C@H](Cc1ccc(O)cc1)NC)[C@@H](C)O)[C@@H](C)CC)C(=O)N[C@@H](C)C(=O)N[C@@H](CC(C)C)C(=O)N[C@@H](CC(=O)O)C(=O)N[C@@H](CCCNC(=N)N)C(=O)NC(C)(C)C(=O)N[C@@H](C)C(=O)N[C@@H](CCC(N)=O)C(=O)NC(C)(C)C(=O)N[C@@H](CCCCNC(=O)COCCOCCNC(=O)COCCOCCNC(=O)CC[C@H](NC(=O)CC[C@H](NC(=O)CCCCCCCCCCCCCCCCC(=O)O)C(=O)O)C(=O)O)C(=O)N[C@@H](Cc1ccccc1)C(=O)N[C@H](C(=O)N[C@@H](CC(N)=O)C(=O)N[C@@H](Cc1c[nH]c2ccccc12)C(=O)N[C@@H](CC(C)C)C(=O)N[C@@H](CC(C)C)C(=O)N[C@@H](C)C(=O)N[C@@H](CCC(N)=O)C(=O)N[C@@H](CCCCN)C(=O)NCC(=O)O)C(C)C` [Compound 41, Me-Y-Aib-E-G-T-F-I-S-D-Y-S-I-A-L-D-R-Aib-A-Q-Aib-Km-F-V-N-W-L-L-A-Q-K-G-OH] (H-[NMeY][Aib]EGTFISDYSIALDR[Aib]AQ[Aib]K([AEEA-AEEA-γGlu-γGlu-C18 diacid])FVNWLLAQKG-OH), in series [1] (fraction unbound, human plasma, 1000 nmol/L peptide, ultracentrifugation), the “Human PPB (FUplasma)” value is given as less than 0.002. In series [1] (setting [5]), the “free unbound peptide in human plasma (in words)” value (from here on “free unbound peptide”) is “optimum free unbound peptide”. In addition, in series [2] (setting [6]), the half-life was 115 h. Besides, in series [2] (setting [7]), the MRT last worked out at 119 h. In series [3] (pH 7.4), this compound showed a solubility of no less than 15 mg/mL. For the same compound, the fraction unbound in series [4] (setting [8]) was found to be 0.0007.
The term MRT denotes a mean duration of stay, worked out from the concentration-time curve. Take `CC[C@H](C)[C@H](NC(=O)[C@H](Cc1ccccc1)NC(=O)[C@@H](NC(=O)CNC(=O)[C@H](CCC(=O)O)NC(=O)C(C)(C)NC(=O)[C@H](Cc1ccc(O)cc1)NC)[C@@H](C)O)C(=O)N[C@@H](CO)C(=O)N[C@@H](CC(=O)O)C(=O)N[C@@H](Cc1ccc(O)cc1)C(=O)N[C@@H](CO)C(=O)N[C@H](C(=O)NC(C)(C)C(=O)N[C@@H](CC(C)C)C(=O)N[C@@H](CC(=O)O)C(=O)N[C@@H](CCCNC(=N)N)C(=O)NC(C)(C)C(=O)N[C@@H](C)C(=O)N[C@@H](CCC(N)=O)C(=O)NC(C)(C)C(=O)N[C@@H](CC(N)=O)C(=O)N[C@@H](Cc1ccccc1)C(=O)N[C@H](C(=O)N[C@@H](CC(N)=O)C(=O)N[C@@H](Cc1c[nH]c2ccccc12)C(=O)N[C@@H](CC(C)C)C(=O)N[C@@H](CC(C)C)C(=O)N[C@@H](C)C(=O)N[C@@H](CCC(N)=O)C(=O)N[C@@H](CCCCNC(=O)COCCOCCNC(=O)COCCOCCNC(=O)CC[C@H](NC(=O)CC[C@H](NC(=O)CCCCCCCCCCCCCCCC(=O)O)C(=O)O)C(=O)O)C(=O)N1CCC[C@H]1C(=O)N[C@@H](CO)C(=O)N[C@@H](CO)C(=O)NCC(=O)N[C@@H](C)C(=O)N1CCC[C@H]1C(=O)N1CCC[C@H]1C(=O)N1CCC[C@H]1C(=O)N[C@@H](CO)C(N)=O)C(C)C)[C@@H](C)CC` [Compound 16] (H-[NMeY][Aib]EGTFISDYSI[Aib]LDR[Aib]AQ[Aib]NFVNWLLAQK([AEEA-AEEA-γGlu-γGlu-C17 diacid])PSSGAPPPS-NH2): the fraction unbound at 30 min, 1000 nmol/L in series [1] (fraction unbound, human plasma, 1000 nmol/L peptide, ultracentrifugation, read-out: Human PPB (FUplasma)) is less than 0.0012; in series [4] (setting [8]), no more than 0.00116. Moreover, the “free unbound peptide” value in series [1] (setting [5]) is listed as “optimum free unbound peptide”. For the same compound, the MRT in series [2] (3 nmol/kg, read-out: mean residence time (MRT)) came out at 59 h. Also, the half-life in series [2] (setting [6]) was 38 h. For the same compound, the MRT last in series [2] (setting [7]) is 59 h. Besides, the solubility in series [3] (pH 7.4, aqueous buffer, pH 7.4 Phosphate Buffer - Solubility, 200 mM Phosphate buffer pH 7.4) was no less than 30 mg/mL; in series [3] (pH 7.4, solubility in phosphate buffer at pH 7.4, 200 mM phosphate buffer pH 7.4) it was no less than 15 mg/mL.
Consider `CC[C@H](C)[C@H](NC(=O)[C@H](CO)NC(=O)[C@H](Cc1ccc(O)cc1)NC(=O)[C@H](CC(=O)O)NC(=O)[C@H](CO)NC(=O)[C@@H](NC(=O)[C@H](Cc1ccccc1)NC(=O)[C@@H](NC(=O)CNC(=O)[C@H](CCC(=O)O)NC(=O)C(C)(C)NC(=O)[C@H](Cc1ccc(O)cc1)NC)[C@@H](C)O)[C@@H](C)CC)C(=O)N[C@@H](C)C(=O)N[C@@H](CC(C)C)C(=O)N[C@@H](CC(=O)O)C(=O)N[C@@H](CCCNC(=N)N)C(=O)NC(C)(C)C(=O)N[C@@H](CCCCNC(=O)COCCOCCNC(=O)COCCOCCNC(=O)CC[C@H](NC(=O)CC[C@H](NC(=O)CCCCCCCCCCCCCCCCC(=O)O)C(=O)O)C(=O)O)C(=O)N[C@@H](CCC(N)=O)C(=O)NC(C)(C)C(=O)N[C@@H](CC(N)=O)C(=O)N[C@@H](Cc1ccccc1)C(=O)N[C@H](C(=O)N[C@@H](CC(N)=O)C(=O)N[C@@H](Cc1c[nH]c2ccccc12)C(=O)N[C@@H](CC(C)C)C(=O)N[C@@H](CC(C)C)C(=O)N[C@@H](C)C(=O)N[C@@H](CCC(N)=O)C(=O)N[C@@H](CO)C(=O)N1CCC[C@H]1C(=O)N[C@@H](CO)C(=O)N[C@@H](CO)C(=O)NCC(=O)N[C@@H](C)C(=O)N1CCC[C@H]1C(=O)N1CCC[C@H]1C(=O)N1CCC[C@H]1C(=O)N[C@@H](CO)C(N)=O)C(C)C` [Compound 293, Me-Y-Aib-E-G-T-F-I-S-D-Y-S-I-A-L-D-R-Aib-Km-Q-Aib-N-F-V-N-W-L-L-A-Q-S-P-S-S-G-A-P-P-P-S-NH2] (H-[NMeY][Aib]EGTFISDYSIALDR[Aib]K([AEEA-AEEA-γGlu-γGlu-C18 diacid])Q[Aib]NFVNWLLAQSPSSGAPPPS-NH2), for which the fraction unbound at 30 min, 1000 nmol/L in series [1] (human, plasma) was less than 0.002; in series [4] (dog, serum, pH 7.4) it was less than 0.002. Besides, in series [1] (human, plasma), the “free unbound peptide” value is reported as “optimum free unbound peptide”. The compound also had a half-life in series [2] (iv, 3 nmol/kg) of 68 h. For the same compound, the mean residence time MRT last in series [2] (sc, 3 nmol/kg) came to 83 h. Also, the solubility in series [3] (pH 7.4) was no less than 15 mg/mL; in series [3] (pH 7.4, aqueous buffer) it was no less than 30 mg/mL.
For the compound `CC[C@H](C)[C@H](NC(=O)[C@H](Cc1ccccc1)NC(=O)[C@@H](NC(=O)CNC(=O)[C@H](CCC(=O)O)NC(=O)C(C)(C)NC(=O)[C@H](Cc1ccc(O)cc1)NC)[C@@H](C)O)C(=O)N[C@@H](CO)C(=O)N[C@@H](CC(=O)O)C(=O)N[C@@H](Cc1ccc(O)cc1)C(=O)N[C@@H](CO)C(=O)N[C@H](C(=O)NC(C)(C)C(=O)N[C@@H](CC(C)C)C(=O)N[C@@H](CC(=O)O)C(=O)N[C@@H](CCCNC(=N)N)C(=O)NC(C)(C)C(=O)N[C@@H](C)C(=O)N[C@@H](CCC(N)=O)C(=O)NC(C)(C)C(=O)N[C@@H](CC(N)=O)C(=O)N[C@@H](Cc1ccccc1)C(=O)N[C@H](C(=O)N[C@@H](CC(N)=O)C(=O)N[C@@H](Cc1c[nH]c2ccccc12)C(=O)N[C@@H](CC(C)C)C(=O)N[C@@H](CC(C)C)C(=O)N[C@@H](C)C(=O)N[C@@H](CCC(N)=O)C(=O)N[C@@H](CCCCNC(=O)COCCOCCNC(=O)COCCOCCNC(=O)CC[C@H](NC(=O)CC[C@H](NC(=O)CCCCCCCCCCCCCCCCC(=O)O)C(=O)O)C(=O)O)C(=O)N1CCC[C@H]1C(=O)N[C@@H](CO)C(=O)N[C@@H](CO)C(=O)NCC(=O)N[C@@H](C)C(=O)N1CCC[C@H]1C(=O)N1CCC[C@H]1C(=O)N1CCC[C@H]1C(=O)N[C@@H](CO)C(N)=O)C(C)C)[C@@H](C)CC` [Compound 27, Me-Y-Aib-E-G-T-F-I-S-D-Y-S-I-Aib-L-D-R-Aib-A-Q-Aib-N-F-V-N-W-L-L-A-Q-Km-P-S-S-G-A-P-P-P-S-NH2] (H-[NMeY][Aib]EGTFISDYSI[Aib]LDR[Aib]AQ[Aib]NFVNWLLAQK([AEEA-AEEA-γGlu-γGlu-C18 diacid])PSSGAPPPS-NH2), the fraction unbound at 30 min, 1000 nmol/L in series [1] (plasma (K2-EDTA), fraction unbound, human plasma, 1000 nmol/L peptide, ultracentrifugation, read-out: Human PPB (FUplasma)) is 0.0013. The “free unbound peptide” value in series [1] (setting [5]) was “optimum free unbound peptide”. In series [2] (iv, 3 nmol/kg), this compound showed a half-life of 77 h. This compound returned an MRT last in series [2] (sc, 3 nmol/kg) of 109 h. Further, the solubility in series [3] (pH 7.4) was no less than 15 mg/mL; in series [3] (pH 7.4, aqueous buffer) it was no less than 30 mg/mL. The “Dog PPB (FUplasma)” value in series [4] (fraction unbound, dog serum) is less than 0.002.
